Literature values in publication PMC5988656, “Phase I studies of AZD1208, a proviral integration Moloney virus kinase inhibitor in solid and haematological cancers” (British Journal of Cancer, 2018).

What was measured:
[1] = system: relapsed/refractory multiple myeloma (RRMM); conditions: in vivo; cited from earlier work
[2] = system: refractory prostate cancer and relapsed/refractory non-Hodgkin lymphoma; set-up: method as in ClinicalTrials.gov, NCT00848601; conditions: ref ClinicalTrials.gov, NCT00848601; cited from earlier work

SMILES	DLT fatigue [1]	DLT hypophosphatemia [1]	DLT thrombocytopenia [1]	DLT vasovagal syncope [1]	DLTs [1]	Outcome of clinical development [2]
C[C@@H]1C[C@H](N)C[C@H](c2ccncc2NC(=O)c2ccc(F)c(-c3c(F)cccc3F)n2)C1 [LGH447]	2 n	1 n	4 n	1 n	eight	–
CN1CCC(CNc2ccc3ncc(-c4cccc(OC(F)(F)F)c4)n3n2)CC1 [SGI-1776]	–	–	–	–	–	discontinued because of QTc prolongation
